These results are taken from patent US20200069648A1, “HALOALLYLAMINE PYRAZOLE DERIVATIVE INHIBITORS OF LYSYL OXIDASES AND USES THEREOF” (Pharmaxis Ltd., priority 2017, published 2020).

One test deals with T1, Human LOXL2 (Homo sapiens, UniProt Q9Y4K0).
T1 sequence (Q9Y4K0 26-774): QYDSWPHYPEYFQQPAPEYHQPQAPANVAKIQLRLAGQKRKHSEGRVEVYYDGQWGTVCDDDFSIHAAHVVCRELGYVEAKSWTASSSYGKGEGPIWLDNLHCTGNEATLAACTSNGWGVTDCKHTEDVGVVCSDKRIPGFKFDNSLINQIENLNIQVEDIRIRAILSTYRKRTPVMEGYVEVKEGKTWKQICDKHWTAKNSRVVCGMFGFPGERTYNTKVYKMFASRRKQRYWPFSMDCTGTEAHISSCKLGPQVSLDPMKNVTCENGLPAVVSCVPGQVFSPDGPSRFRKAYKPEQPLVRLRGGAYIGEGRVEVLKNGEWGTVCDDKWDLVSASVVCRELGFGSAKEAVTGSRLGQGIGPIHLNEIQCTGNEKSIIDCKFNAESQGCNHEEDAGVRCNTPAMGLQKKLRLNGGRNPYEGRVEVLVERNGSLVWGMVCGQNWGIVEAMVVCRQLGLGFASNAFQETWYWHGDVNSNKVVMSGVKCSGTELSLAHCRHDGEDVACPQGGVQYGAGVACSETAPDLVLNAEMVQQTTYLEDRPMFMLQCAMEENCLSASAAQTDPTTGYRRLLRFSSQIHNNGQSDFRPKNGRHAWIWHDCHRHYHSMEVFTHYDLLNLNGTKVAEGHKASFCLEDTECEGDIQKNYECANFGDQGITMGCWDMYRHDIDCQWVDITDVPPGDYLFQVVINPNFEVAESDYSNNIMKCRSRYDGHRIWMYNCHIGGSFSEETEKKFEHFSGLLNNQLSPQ
The experiment in a line: LOXL2 amine oxidase inhibition, peroxidase-coupled Amplex Red assay. The class given is biochemical. The settings on record: 30 min preincubation at 37° C., putrescine substrate. The gist of the method: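 Enzyme preincubated 30 min at 37 °C with compound (11-point curve) in 1.2 M urea, 50 mM borate pH 8.2 plus 1 μM mofegiline and 0.5 mM pargyline; putrescine at twice KM (10 mM for LOXL2), Amplex Red and HRP added. Fluorescence (565/590 nm) read every 2.5 min for 30 min; IC50 from kinetic slopes.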

For another test, the target named is T2, Bovine LOX (Bos taurus, UniProt P33072).
T2 sequence (P33072 170-418): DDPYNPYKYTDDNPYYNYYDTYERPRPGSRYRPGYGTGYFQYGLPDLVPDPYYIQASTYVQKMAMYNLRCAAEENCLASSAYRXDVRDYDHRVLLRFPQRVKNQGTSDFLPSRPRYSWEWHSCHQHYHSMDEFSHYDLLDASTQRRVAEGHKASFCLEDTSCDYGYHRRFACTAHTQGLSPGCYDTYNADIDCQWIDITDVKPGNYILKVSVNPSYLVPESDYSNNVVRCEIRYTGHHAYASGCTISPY
The test can be described thus: LOX amine oxidase inhibition, peroxidase-coupled Amplex Red assay. The class given is biochemical. The settings on record: 30 min preincubation at 37° C., putrescine substrate. The gist of the method:
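Bovine LOX in 1.2 M urea, 50 mM sodium borate pH 8.2 […]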

Molecules are shown by their SMILES. Where a name gives a salt, the structure may show the parent alone.

Consider `Cc1nn(C/C(F)=C/CN)c(C(C)O)c1Cc1ccc(S(=O)(=O)N(C)C)c(Cl)c1` (single isomer, unassigned) [Compound 52, (Z)-4-((1-(4-amino-2-fluorobut-2-en-1-yl)-5-(1-hydroxyethyl)-3-methyl-1H-pyrazol-4-yl)methyl)-2-chloro-N,N-dimethylbenzenesulfonamide hydrochloride], for which the IC50 (usually the concentration needed to halve the response being measured) against Human LOXL2 is less than 1 µM; against Bovine LOX it was greater than 10 µM.
In the same order, the values of `Cc1nn(C/C(F)=C/CN)c(C(C)O)c1Cc1ccc(S(=O)(=O)N(C)C)c(Cl)c1` (single isomer, unassigned) [Compound 53, (Z)-4-((1-(4-amino-2-fluorobut-2-en-1-yl)-5-(1-hydroxyethyl)-3-methyl-1H-pyrazol-4-yl)methyl)-2-chloro-N,N-dimethylbenzenesulfonamide hydrochloride] are less than 1 µM and greater than 10 µM.
Regarding `N#CCCN` [BAPN, β-aminopropionitrile, reference compound], the IC50 at Human LOXL2 and against Bovine LOX was less than 1 µM each time.
Turning to `CN(C)S(=O)(=O)c1ccc(-c2cnn(C/C(F)=C/CN)c2)cc1` [Compound 1, (Z)-4-(1-(4-amino-2-fluorobut-2-en-1-yl)-1H-pyrazol-4-yl)-N,N-dimethyl benzenesulfonamide hydrochloride], the figures for the IC50 against Human LOXL2 and on Bovine LOX were less than 1 µM and less than 10 µM, respectively.
As to `Cc1nn(C/C(F)=C/CN)c(C)c1Cc1ccc(S(=O)(=O)N(C)C)cc1` [Compound 2, (Z)-4-((1-(4-amino-2-fluorobut-2-en-1-yl)-3,5-dimethyl-1H-pyrazol-4-yl)methyl)-N,N-dimethylbenzenesulfonamide hydrochloride], the IC50 against Human LOXL2 was less than 1 µM; against Bovine LOX, less than 10 µM.
In the same order, the values of `Cc1nn(C/C(F)=C/CN)c(C)c1Cc1ccc(S(=O)(=O)N(C)C)cc1Cl` [Compound 3, (Z)-4-((1-(4-amino-2-fluorobut-2-en-1-yl)-3,5-dimethyl-1H-pyrazol-4-yl)methyl)-3-chloro-N,N-dimethylbenzenesulfonamide hydrochloride] are less than 1 µM and less than 10 µM.
With `Cc1nn(C/C(F)=C/CN)c(C)c1Cc1ccc(S(C)(=O)=O)cc1` [Compound 4, (Z)-4-(3,5-dimethyl-4-(4-(methylsulfonyl)benzyl)-1H-pyrazol-1-yl)-3-fluorobut-2-en-1-amine hydrochloride], the IC50 is less than 1 µM against Human LOXL2 and less than 10 µM against Bovine LOX.
As for `Cc1nn(C/C(F)=C/CN)c(C)c1Cc1cccc(S(=O)(=O)N(C)C)c1` [Compound 5, (Z)-3-((1-(4-amino-2-fluorobut-2-en-1-yl)-3,5-dimethyl-1H-pyrazol-4-yl)methyl)-N,N-dimethyl benzenesulfonamide hydrochloride], the IC50 on Human LOXL2 is less than 1 µM; against Bovine LOX, greater than 10 µM.
Regarding `Cc1nn(C/C(F)=C/CN)c(C)c1Cc1ccc(S(=O)(=O)N2CCOCC2)cc1` [Compound 6, (Z)-4-(3,5-dimethyl-4-(4-(morpholinosulfonyl)benzyl)-1H-pyrazol-1-yl)-3-fluorobut-2-en-1-amine hydrochloride], the results for the IC50 against Human LOXL2 and at Bovine LOX were less than 1 µM and less than 10 µM, respectively.
In the case of `Cc1nn(C/C(F)=C/CN)c(C)c1Cc1ccc(S(=O)(=O)N2CCCC2)cc1` [Compound 7, (Z)-4-(3,5-dimethyl-4-(4-(pyrrolidin-1-ylsulfonyl)benzyl)-1H-pyrazol-1-yl)-3-fluorobut-2-en-1-amine hydrochloride], the values for the IC50 against Human LOXL2 and on Bovine LOX were less than 1 µM and less than 10 µM, respectively.
The like results for `Cc1nn(C/C(F)=C/CN)c(C)c1Cc1ccc(S(=O)(=O)N(C)C(C)C)cc1` [Compound 8, (Z)-4-((1-(4-amino-2-fluorobut-2-en-1-yl)-3,5-dimethyl-1H-pyrazol-4-yl)methyl)-N-isopropyl-N-methylbenzenesulfonamide hydrochloride] were, in that order, less than 1 µM and less than 10 µM.
The like results for `Cc1nn(C/C(F)=C/CN)c(C)c1Cc1ccc(S(=O)(=O)N(C)C)c2ccccc12` [Compound 9, (Z)-4-((1-(4-amino-2-fluorobut-2-en-1-yl)-3,5-dimethyl-1H-pyrazol-4-yl)methyl)-N,N-dimethyl naphthalene-1-sulfonamide hydrochloride] were, in that order, less than 1 µM and less than 10 µM.
As to `Cc1nn(Cc2ccc(S(=O)(=O)N(C)C)cc2)c(C)c1C/C(F)=C/CN` [Compound 10, (Z)-4-((4-(4-amino-2-fluorobut-2-en-1-yl)-3,5-dimethyl-1H-pyrazol-1-yl)methyl)-N,N-dimethylbenzenesulfonamide hydrochloride], the IC50 against Human LOXL2 is less than 1 µM; on Bovine LOX, less than 10 µM.
For the compound `Cc1nn(C/C(F)=C/CN)c(C)c1Cc1ccc(S(=O)(=O)NC(C)C)cc1` [Compound 11, (Z)-4-((1-(4-amino-2-fluorobut-2-en-1-yl)-3,5-dimethyl-1H-pyrazol-4-yl)methyl)-N-isopropyl benzenesulfonamide hydrochloride], the half-maximal inhibitory concentration (IC50) against Human LOXL2 was less than 1 µM; on Bovine LOX it was less than 10 µM.
The like results for `Cc1nn(C/C(F)=C/CN)c(C)c1Cc1ccc(S(C)(=O)=O)cc1Cl` [Compound 12, (Z)-4-(4-(2-chloro-4-(methylsulfonyl)benzyl)-3,5-dimethyl-1H-pyrazol-1-yl)-3-fluorobut-2-en-1-amine hydrochloride] were, in that order, less than 1 µM and less than 10 µM.
Consider `CCc1nn(C/C(F)=C/CN)c(CC)c1Cc1ccc(S(=O)(=O)N(C)C)cc1` [Compound 13, (Z)-4-((1-(4-amino-2-fluorobut-2-en-1-yl)-3,5-diethyl-1H-pyrazol-4-yl)methyl)-N,N-dimethyl benzenesulfonamide hydrochloride], for which the IC50 against Human LOXL2 was less than 1 µM; at Bovine LOX, less than 10 µM.
In the same order, the values of `Cc1nn(C/C(F)=C/CN)c(C)c1Cc1ccc(C(=O)N(C)C)cc1` [Compound 14, (Z)-4-((1-(4-amino-2-fluorobut-2-en-1-yl)-3,5-dimethyl-1H-pyrazol-4-yl)methyl)-N,N-dimethylbenzamide hydrochloride] are less than 10 µM and less than 10 µM.
The like results for `Cc1nn(C/C(F)=C/CN)c(C)c1Cc1ccc(S(=O)(=O)N(C)C)c(Cl)c1` [Compound 15, (Z)-4-((1-(4-amino-2-fluorobut-2-en-1-yl)-3,5-dimethyl-1H-pyrazol-4-yl)methyl)-2-chloro-N,N-dimethylbenzenesulfonamide hydrochloride] were, in that order, less than 1 µM and less than 10 µM.
In the same order, the values of `Cc1nn(C/C(F)=C/CN)c(C)c1Cc1ccc(S(C)(=O)=O)c(Cl)c1` [Compound 16, (Z)-4-(4-(3-chloro-4-(methylsulfonyl)benzyl)-3,5-dimethyl-1H-pyrazol-1-yl)-3-fluorobut-2-en-1-amine hydrochloride] are less than 1 µM and less than 10 µM.
In the case of `Cc1nn(C/C(F)=C/CN)c(C)c1Cc1ccc(S(=O)(=O)N(C)C)c(OC(F)(F)F)c1` [Compound 17, (Z)-4-((1-(4-amino-2-fluorobut-2-en-1-yl)-3,5-dimethyl-1H-pyrazol-4-yl)methyl)-N,N-dimethyl-2-(trifluoromethoxy)benzenesulfonamide hydrochloride], the IC50 at Human LOXL2 is less than 1 µM; at Bovine LOX, greater than 10 µM.
The like results for `Cc1nn(C/C(F)=C/CN)c(C)c1Cc1ccc(S(=O)(=O)N(C)C)c(C(F)(F)F)c1` [Compound 18, (Z)-4-((1-(4-amino-2-fluorobut-2-en-1-yl)-3,5-dimethyl-1H-pyrazol-4-yl)methyl)-N,N-dimethyl-2-(trifluoromethyl)benzenesulfonamide hydrochloride] were, in that order, less than 1 µM and less than 10 µM.
The like results for `Cc1nn(C/C(F)=C/CN)c(C)c1Cc1cc(F)c(S(=O)(=O)N(C)C)cc1F` [Compound 19, (Z)-4-((1-(4-amino-2-fluorobut-2-en-1-yl)-3,5-dimethyl-1H-pyrazol-4-yl)methyl)-2,5-difluoro-N,N-dimethylbenzenesulfonamide hydrochloride] were, in that order, less than 1 µM and less than 10 µM.
The like results for `CNS(=O)(=O)c1ccc(Cn2nc(C)c(C/C(F)=C/CN)c2C)c(Cl)c1` [Compound 20, (Z)-4-((4-(4-amino-2-fluorobut-2-en-1-yl)-3,5-dimethyl-1H-pyrazol-1-yl)methyl)-3-chloro-N-methylbenzenesulfonamide hydrochloride] were, in that order, less than 1 µM and less than 10 µM.
